One data set addresses human α thrombin. Put plainly: Competitive binding assay on BIAcore (SPR) against immobilized consensus aptamer. The note with it: for Kd: 80 nM human α thrombin, 25° C., pH 7.4, competition with immobilized consensus aptamer, read-out: Apparent Kd. On the procedure: Competitive binding assays were used to determine the thrombin binding affinity of the various bi-directional oligonucleotides relative to the affinity of the known thrombin aptamer ^5' GGTTGGTGTGGTTGG^3' (SEQ ID NO:4) (hereafter called the "consensus" aptamer; Bock, L. C. et al, Nature 355, 564 (1992)). The assays were performed on a BIAcore™ biosensor instrument (Pharmacia Biosensor, Uppsala Sweden) by means of Surface Plasmon Resonance (SPR) detection of thrombin bound to consensus aptamer immobilized as described in U.S. patent application Ser. No. 0802,383, now abandoned, filed Aug. 5, 1993 incorporated herein by reference. Competition experiments were conducted at 25° C. by pre-incubating 80 nM human α thrombin for 30 minutes with various concentrations of the bi-directional oligonucleotide to be measured, in a buffer composed of 20 mM Tris-Acetate, 140 mM NaCl, 5 mM KCl, 1 mM CaCl2, 1 mM MgCl2 (pH 7.4). This solution was then passed over the surface containing immobilized consensus aptamer at a flow rate of 3 μL per minute for 10 minutes. The steady state response was measured as a function of bi-directional oligonucleotide concentration. The competition data were analyzed assuming that thrombin and the solution phase oligonucleotide bind monovalently and that thrombin molecules bound to a solution phase oligonucleotide are prohibited from binding to the immobilized consensus aptamer.
In this analysis, the steady state response in the presence of oligonucleotide is proportional to the surface concentration of bound thrombin, and apparent equilibrium dissociation constants (Kd 's) were determined from the variation in SPR response as a function of bi-directional oligonucleotide concentration. (Data were fit to eqn 31 of Pisarchick, M. L. and Thompson, N. L., Biophys J. 58, 1235, to yield the Kd values. In this analysis, it was assumed that the concentration nucleic acid ligand free in solution is equal to the total nucleic acid ligand concentration). The values determined are shown below (SEQ ID NO:4): […]
(In general: Surface plasmon resonance follows binding to a sensor surface in real time, without labels.)

A further data set relates to bovine thrombin. Put plainly: Clot time assay in platelet-poor porcine plasma with added thrombin. The note with it: room temperature, FIG. 2. It is filed as biochemical. As for the experimental part: PPP was prepared by separating cells from […] by centrifugation of whole citrated porcine blood (Environmental Diagnostics Inc.). Approximately 0.5 ml of PPP was added to 12×75 mm polystyrene test tubes (FALCON, Becton Dickinson) and equilibrated to room temperature in a water bath for 15 minutes. Following equilibration, 25 μl of 250 μg/ml bovine thrombin (Sigma) in saline was added along with varying amounts of bi-directional nucleic acid ligand compounds prepared in Example 3 (specifically Compound #5 and Compound #9) in saline and sufficient saline diluent to bring the total volume to 0.6 ml. At this time 50 μl of 0.4M CaCl2 was added to initiate coagulation and the tubes were quickly capped. Tube contents were mixed on a laboratory inverting mixer and time of clotting noted for each tube type.

Data set [1] has as its system 3'-exonuclease (Phosphodiestase I; C. adamanteus Venon). The data set is classed as in vitro ADME. Particulars: 0.005 units exonuclease, 37° C., pH 8.8; for Approximate Half-Life: estimated by visual inspection of autoradiogram. As for the experimental part: It is expected that the 3'--3' linked oligonucleotides will show similar resistance to 3'-exonucleases found in
The various bi-directional nucleic acid ligands to be tested were first labeled with radioactive (^32 p) phosphate as follows:
200 pmol of each oligonucleotide was incubated at 37° C. for 30 minutes in 20 μl of a solution containing 3.0 mM Tricine (pH 7.6), 50 mM TRIS-HCl (pH8), 10 mM MgCl2, 5 mM DTT, 1.0 μM γ-^32 P-ATP (3000 Ci/mmol, 10 mCi/mL), 10 units T4 polynucleotide kinase (New England Biolabs). This labeling reaction was then terminated by heating the mixture at 95° C. for 3 minutes.
To test the resistance of the ^32 P-labeled oligonucleotides to the 3' exonuclease, the following reaction mixtures were assembled: Each bi-directional nucleic acid ligand (25 pmole) was dissolved in 100 μl containing 55 mM Tris-HCl, 55 mM NaCl, 7.5 mM MgCl2 (all at pH8.8). To this mixture 0.005 units of the exonuclease (Phosphodiestase I; C. adamanteus Venon; Pharmacia Biotech, Inc.) was added and the sample was mixed and incubated at 37° C. Five μL aliquots of each reaction were removed at 3, 10, 30, 60, and 100 minutes. The reactions were quenched by placing the aliquots into 25 μL solutions containing 50% (w/v) urea, 20 mM Na2 EDTA, and 0.05% bromophenol blue/zylene cylanol and heating the sample to 90° C. for 2 minutes. The reaction products were analyzed by electrophoretic separation on a denaturing polyacrylamide gel and subsequent autoradiagraphy of the gel.
The half-lives of the various bi-directional nucleic acid ligands under these conditions were estimated by visual inspection of autoradiogram (SEQ ID NO:4): […]

Some results are limits rather than exact numbers.

For “^5' GGTTGGTG^3' -p-^3' TGGTTGG^5' [Compound 1]”, on human α thrombin, the Kd came to 224 nM.
Same read-out and setting: to “^5' GGTTGGTT^3' -p-^3' TTGGTTGG^5' [Compound 2]” belongs 312 nM.
On the same count and under the same terms, the figure for “^3' GGTTGGTT^5' -p-^5' TTGGTTGG^3' [Compound 4]” is 25 nM.
As for “^5' GGTTGGT^3' -L1 -^3' TGGTTGG^5' (DNA, backbone not given here; two strands joined 3'-3' through linker L1, further chemistry not fully specified) [Compound 5, 3'-3' bi-directional oligonucleotide linked through hexaethylene glycol phosphodiester]”, the Kd in the data set with human α thrombin came to 9 nM. Further, the “Ka (thrombin binding affinity)” value in the data set on human α thrombin (thrombin) is > 10^7 M^-1. Further, the “inhibition of exogenous thrombin in plasma (clot time)” value with bovine thrombin is recorded as “inhibition of exogenous thrombin in plasma”. The “Approximate Half-Life” value in data set [1] is 30 min.
As for “5'-GGTTGGT-3' (DNA, backbone not given here) [a single copy of this sequence, reference compound]”, the “thrombin affinity (in words)” value in the data set with human α thrombin (thrombin) is listed as “does not have high affinity for thrombin”.
On to “^5' GGTTGGTT^3' (DNA, backbone not given here) [Compound 12, single oligonucleotide segment, control, reference compound]”, for which, in the data set on human α thrombin, the Kd stood at 1500 nM.
Consider “^5' GGTTGGTTG^3' -p-^3' TTGGTTGG^5' [Compound 3]”, for which the Kd on human α thrombin came out at 11 nM. Moreover, in data set [1], the “Approximate Half-Life” value was more than 100 min.
On to “^5' GGTTGGTT^3' -L1 -^3' TTGGTTGG^5' (DNA, backbone not given here; two strands joined 3'-3' by hexaethylene glycol phosphodiester linker, further chemistry not fully specified) [Compound 6, 3'-3' bi-directional oligonucleotide linked through hexaethylene glycol phosphodiester]”, for which the Kd in the data set on human α thrombin is 10 nM. The “thrombin affinity (in words)” value with human α thrombin (thrombin) was “high affinity for thrombin”. Moreover, in the data set with bovine thrombin, the “inhibition of exogenous thrombin in plasma (clot time)” value is “inhibits thrombin in porcine plasma”.
Consider “^5' GGTTGGTGTGGTTGG^3' [Compound 10, reference compound]”, for which the Kd in the data set on human α thrombin came to 6 nM. Also, in data set [1], the “time to complete degradation by the 3'-exonuclease” value is “less than 3 minutes” and the “Approximate Half-Life” value is less than 3 min.

Source of the values: patent US5668265A, “Bi-directional oligonucleotides that bind thrombin” (Becton Dickinson and Company, priority 1996, dated 1997).
